Experiments:
L929 cells [1] = experiment: TGF-induced collagen synthesis in L929 cells, 6-wells (SIRCOL); assay type: cell-based; settings: 500 μM
Method: 100,000 L929 cells were plated in complete DMEN and incubated until confluency for 3 days. Medium was removed and complete DMEM containing Prolin (20 μg/ml) and ascorbic acid (10 μM) was added. […] Cells were further incubated for 72 hrs. Supernatant was removed, cells were washed with cold PBS, 1 ml SIRCOL reagent was added onto the cells and cells were scraped off, samples were shaken for 5 h. at RT, centrifuged at 10.000 rpm for 5 min, supernatant was removed, pellet was dissolved in 0.5 M acetic acid to remove unbound dye, and re-centrifuged at 10.000 rpm for 5 min, supernatant was removed and final pelet was dissolved in 1 ml 0.5M NaOH, shaken at RT for 5 h, 100 μl of resulted solution was placed in 96-well and O.D was determined at 600.

[2] = test system: mouse tail model of lymphedema; experiment: Mouse tail model of lymphedema; assay type: in vivo; settings: once daily oral gavage, by 5 weeks; 7 animals per group
[3] = human, in vivo
Method: All Part 1 cohorts will be dosed every 12 hours with food for 5 days.
During the treatment period (Day 1 through Day 5), subjects will be administered their assigned study medication BID, every 12 h±0.25 h (with approximately 240 mL of non-carbonated water), 30 minutes after the start of consumption of their standardised breakfast or dinner (12 h apart). A standardised lunch will be served >4 h post breakfast and >4 h prior to dinner. An evening snack will be served >3 h following evening study medication administration. No additional fluids will be allowed during the 1 h pre- and post-doses. On Day 6, subjects will replicate mealtimes as scheduled on Day 1-5. To ensure study drug dosing every 12 hours, here is an example of meal and dosing schedule in Part 1: • Breakfast: meal to be served 30 mins prior to AM dosing. Breakfast must be completed within 30 mins of start time. • Lunch: meal to be served at least 4 h post-AM study drug dose. • Dinner: meal to be served at least 11.5 h post-AM dose and served 30 minutes prior to PM study drug dose. • Evening snack: Snack to be served at least 15 h post-AM dose (at least 3 h post-PM dose).
In Part 1, blood samples (4 mL each) for PK will be collected for Cohorts 1, 2, 3, 4, and 6 at specified times (hours) at each as follows: • Day 1 and Day 5: 0 (pre-dose), 0.5, 1, 1.5, 2, 2.5, 3, 3.5, 4, 6, 8, 12 (pre-dose), 13, 14, 15, 16, 18 h • Day 2, Day 3 and Day 4: 0 (pre-morning-dose) and 12 h (pre-evening-dose) • Day 6: 12, 18, 24 and 36 h post-last dose • Day 7: 48 h (post-last dose)
Pharmacokinetics for Day 1 to 3 in Part 2 (fed state) will be compared to PK for Day 1 to Day 3 in Part 2 (fasted state). Plasma PK parameters (non-compartmental or compartmental analysis as appropriate) will include, but are not limited to: • Following single dose: Tmax, tlag, Cmax, AUC0-4, AUC0-last, AUC0-inf, lambda z, % AUCext, CL/F, Vz/F, Cmax/D, AUC0-last/D, AUC0-inf/D and MRT (D is dose) • After repeated doses: Ctrough, Ctrough/D • Following repeated doses on last day: Tmax, Cmax, Cavg, tlag, t1/2, AUC0-4, AUC0-last, AUC0-inf, lambda z, % AUCext, CLss/F, Vzss/F, MRT, PTF, Rac(AUC), Rac(Cmax), Cmax/D, AUClast/D, AUC0-inf/D and Rac (accumulation ratio) Part 3 (Patients with Secondary Lymphoedema Post-Axillary/Post-Sentinel Node Dissection)

L929 cells [4] = experiment: TGF-induced soluble fibronectin synthesis in L929 cells (ELISA); assay type: cell-based; settings: 500 μM, in the absence and presence of TGF-β-induction
Source text: Fibronectin is another important component of fibrotic lungs as it is induced by TGF-β and functions both as a structural component of extra cellular matrix as well as well as a ligand for integrin receptors. Just like soluble collagen, binding of fibronectin to integrin receptors induces the proliferation of fibroblast and epithelial cells of the lungs.

[5] = test system: Primary Mouse Lung Fibroblasts; experiment: Survival / TGF-β-induced proliferation of Primary Mouse Lung Fibroblasts (MTT); assay type: cell-based; settings: 500 μM, 72 hrs
Method: Primary Mouse lung fibroblast were prepared as follows. One lung was removed from 2 months old male BalbC Mouse, perfused with sterile PBS, minced and incubated in 2 ml of serum free Dulbecco's Modified Eagle's Medium (DMEM) containing 100 μg/ml of collagenase I for one hour at 37° C. Each sample was centrifuged at 1500 r.p.m (revolution per minute) for 5 minutes, washed three times with PBS and the final cellular pellet was resuspended in DMEM supplemented with 10% serum and Pen/Strep, and incubated in 150 mm plates at 37° C. with 80% humidity and […]. The growth medium was removed and fresh medium was added every day for 10 days.
At the end of 10-day incubation period above, lung fibroblasts were confluent. […] One hundred μL of the growth medium was removed and 20 μL of MTT stock solution (prepared in PBS at 5.5 mg/ml concentration) was added and cells were incubated for 4 hrs, then 100 μl of DMSO was added, and absorbance of developed color was monitored at 540-690 nm.

L929 cells [6] = experiment: Survival of L929 cells (MTT); assay type: cell-based; settings: 500 μM, 72 hrs
Method: Five thousand L929 cells were plated in completed DMEN and incubated until confluency for 3 days. Medium was removed and complete DMEM containing Prolin (20 μg/ml) and ascorbic acid (10 uM) was added. […], of medium was removed, […], MTT solution was added for 4 hrs, then 100 μl of DMSO was added, and absorbance of developed dark pink color was determined at […].

[7] = MAD study adverse event profile; assay type: in vivo
Source text: All subjects in Part 1 and Part 2 will be monitored for safety (including assessment of chemistry, haematology and urinalysis parameters, electrocardiograms [ECGs], vital signs and adverse events [AEs]) and samples will be collected for assessment of PK at predefined time points pre and post-dose as delineated in the Schedule of Events.

SMILES: [2H]C([2H])([2H])c1ccc(=O)n(-c2ccccc2)c1 [LYT-100, 5-(methyl-d3)-1-phenylpyridin-2-(1H)-one]
- collagen synthesis in the absence of added TGF-β (L929 cells [1]): significantly inhibits
- TGF-induced collagen synthesis (L929 cells [1]; TGF-β 5 ng/ml, 72 hrs): inhibits
- tail swelling vs carboxymethylcellulose control [2]: significantly reduced swelling
- dose dependence of AUC96-108 [3]: linear dose proportionality
- soluble fibronectin levels (L929 cells [4]): significantly reduced
- survival of PMLF alone ([5]; without TGF-β): did not affect the survival
- diminution of TGF-β-induced proliferation of PMLF ([5]; TGF-β 5 ng/ml, not statistically significant (p=0.19)): 10%
- survival of L929 cells (L929 cells [6]): does not affect survival
- tolerability of 750 mg dosing ([7]; 750 mg BID): surprisingly well tolerated
- most common adverse events ([7]; blinded MAD data): headache and mild abdominal discomfort
- severity of adverse events ([7]; blinded MAD data, 100-1000 mg BID, 5 days): mild and transient
